Measured values taken from ChEMBL document CHEMBL1139251, “Urea based CCR3 antagonists employing a tetrahydro-1,3-oxazin-2-one spacer” (Bioorg Med Chem Lett, 2009).

How the values were obtained:
Liver microsomes = assay: Metabolic stability in human liver microsomes; type: ADME, Microsome
Eosinophil = assay: Induction of shape change in human eosinophils by flow cytometry; type: functional, cell-based
Cytochrome P450 2D6 = Cytochrome P450 2D6 (Homo sapiens, UniProt P10635); assay: Inhibition of CYP2D6; type: ADME
[1] = molecular target: Voltage-gated inwardly rectifying potassium channel KCNH2 (Homo sapiens, UniProt Q12809); assay: Inhibition of human ERG by calcium-flux based assay
[2] = molecular target: T1, C-C chemokine receptor type 3 (Homo sapiens, UniProt P51677); assay: Binding affinity to CCR3 receptor
T1 sequence (P51677 whole entry): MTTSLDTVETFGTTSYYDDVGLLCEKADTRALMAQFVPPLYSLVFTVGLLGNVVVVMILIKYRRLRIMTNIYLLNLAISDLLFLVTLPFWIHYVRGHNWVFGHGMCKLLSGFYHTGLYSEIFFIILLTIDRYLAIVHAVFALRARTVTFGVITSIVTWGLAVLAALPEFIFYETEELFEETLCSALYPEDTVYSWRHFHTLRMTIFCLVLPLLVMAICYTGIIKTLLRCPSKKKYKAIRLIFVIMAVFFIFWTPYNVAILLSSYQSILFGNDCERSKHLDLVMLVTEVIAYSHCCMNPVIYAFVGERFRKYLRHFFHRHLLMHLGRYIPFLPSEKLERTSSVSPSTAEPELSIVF

Sequence of Cytochrome P450 2D6 (P10635 whole entry): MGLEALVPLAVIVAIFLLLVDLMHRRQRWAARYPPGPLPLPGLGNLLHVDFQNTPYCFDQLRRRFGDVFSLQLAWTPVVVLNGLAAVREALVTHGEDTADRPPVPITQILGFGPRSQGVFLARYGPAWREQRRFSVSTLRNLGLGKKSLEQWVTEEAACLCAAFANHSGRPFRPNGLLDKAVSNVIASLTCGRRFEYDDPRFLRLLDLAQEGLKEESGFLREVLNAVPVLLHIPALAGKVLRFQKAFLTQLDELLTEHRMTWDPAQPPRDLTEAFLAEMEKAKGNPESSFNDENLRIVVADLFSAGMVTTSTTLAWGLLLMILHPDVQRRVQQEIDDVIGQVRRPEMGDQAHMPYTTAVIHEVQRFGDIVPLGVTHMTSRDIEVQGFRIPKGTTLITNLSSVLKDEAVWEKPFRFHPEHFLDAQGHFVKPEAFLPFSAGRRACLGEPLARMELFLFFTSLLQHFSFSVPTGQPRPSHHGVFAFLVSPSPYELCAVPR
Sequence of Voltage-gated inwardly rectifying potassium channel KCNH2 (Q12809 whole entry): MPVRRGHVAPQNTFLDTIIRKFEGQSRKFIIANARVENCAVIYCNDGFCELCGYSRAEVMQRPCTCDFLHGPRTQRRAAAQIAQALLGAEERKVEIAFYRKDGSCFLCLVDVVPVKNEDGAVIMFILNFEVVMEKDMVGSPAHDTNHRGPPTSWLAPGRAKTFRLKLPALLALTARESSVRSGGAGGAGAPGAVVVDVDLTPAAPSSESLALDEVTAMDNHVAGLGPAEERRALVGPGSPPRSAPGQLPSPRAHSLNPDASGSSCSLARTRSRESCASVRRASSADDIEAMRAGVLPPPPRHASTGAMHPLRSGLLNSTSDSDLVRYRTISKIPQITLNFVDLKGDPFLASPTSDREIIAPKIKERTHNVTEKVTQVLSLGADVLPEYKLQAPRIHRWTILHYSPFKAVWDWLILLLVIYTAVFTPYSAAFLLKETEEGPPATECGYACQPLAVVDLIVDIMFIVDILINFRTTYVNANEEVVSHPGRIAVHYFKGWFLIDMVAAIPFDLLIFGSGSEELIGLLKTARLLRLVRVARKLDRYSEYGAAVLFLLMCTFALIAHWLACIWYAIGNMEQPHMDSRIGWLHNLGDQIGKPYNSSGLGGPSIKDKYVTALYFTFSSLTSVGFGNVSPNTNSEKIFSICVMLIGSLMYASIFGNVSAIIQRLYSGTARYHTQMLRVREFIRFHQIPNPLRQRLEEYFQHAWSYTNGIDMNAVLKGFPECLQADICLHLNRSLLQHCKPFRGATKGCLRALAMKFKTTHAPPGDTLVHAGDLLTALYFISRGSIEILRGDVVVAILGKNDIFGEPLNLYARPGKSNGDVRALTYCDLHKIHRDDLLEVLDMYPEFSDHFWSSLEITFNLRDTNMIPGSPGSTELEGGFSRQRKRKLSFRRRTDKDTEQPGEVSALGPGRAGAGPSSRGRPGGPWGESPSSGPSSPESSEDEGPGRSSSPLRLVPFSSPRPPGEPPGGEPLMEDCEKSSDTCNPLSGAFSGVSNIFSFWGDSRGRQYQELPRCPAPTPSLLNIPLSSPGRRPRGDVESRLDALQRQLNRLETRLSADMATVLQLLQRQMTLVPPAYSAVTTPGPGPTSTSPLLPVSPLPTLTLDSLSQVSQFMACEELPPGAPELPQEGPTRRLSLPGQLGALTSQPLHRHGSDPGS

| SMILES | IC50 (Cytochrome P450 2D6) | IC50 [2] | IC50 (Eosinophil; Homo sapiens, Eosinophil) | also measured |
| --- | --- | --- | --- | --- |
| CN1CC(C)(NC(=O)Nc2nc(C(C)(C)C)cs2)C(CN2CCC[C@@H](Cc3ccc(F)cc3)C2)OC1=O (mixture of isomers; 22a) | – | 44 nM | – | – |
| Cc1csc(NC(=O)NC2(C)CN(C)C(=O)OC2CN2CCC[C@@H](Cc3ccc(F)cc3)C2)n1 (mixture of isomers; 20a) | – | 5.4 nM | – | – |
| CCCN(CCCc1ccc(F)cc1)C[C@@H]1OC(=O)N(C)C[C@H]1NC(=O)Nc1nc(C)cs1 | – | 9.2 nM | – | – |
| CN1C[C@@H](NC(=O)Nc2cccc(-c3nnnn3C)c2)[C@H](CN(CCCc2ccc(F)cc2)C2CC2)OC1=O | – | 2.1 nM | 2.2 nM | – |
| CN1CC(C)(NC(=O)Nc2nc(C(C)(C)C)cs2)C(CN2CCC[C@@H](Cc3ccc(F)cc3)C2)OC1=O (mixture of isomers; 22b) | 40000 nM | 5.5 nM | – | – |
| C[C@@H](NC(=O)Nc1cccc(-c2nnnn2C)c1)[C@@H](O)CN1CCC[C@@H](Cc2ccc(F)cc2)C1 | – | – | 0.038 nM | Ki (Cytochrome P450 2D6): 2600 nM |

The remaining compounds from weak to strong by IC50 [2], led by results:

| IC50 (Cytochrome P450 2D6) | IC50 [2] | IC50 (Eosinophil; Homo sapiens, Eosinophil) | SMILES | also measured |
| --- | --- | --- | --- | --- |
| 21000 nM | 1.1 nM | – | CC(=O)c1sc(NC(=O)NC2(C)CN(C)C(=O)OC2CN2CCC[C@@H](Cc3ccc(F)cc3)C2)nc1C (mixture of isomers) | – |
| 14000 nM | 0.47 nM | > 3 nM | CCN(CCCc1ccc(F)cc1)CC1OC(=O)N(C)CC1(C)NC(=O)Nc1cccc(-c2nnnn2C)c1 (mixture of isomers; 23b) | – |
| 2100 nM | 0.37 nM | 3.4 nM | Cc1csc(NC(=O)NC2(C)CN(C)C(=O)OC2CN2CCC[C@@H](Cc3ccc(F)cc3)C2)n1 (mixture of isomers; 20b) | – |
| 4300 nM | 0.23 nM | – | CN1C[C@@H](NC(=O)Nc2cccc(-c3nnnn3C)c2)[C@H](CN2CCC[C@@H](Cc3ccc(F)cc3)C2)OC1=O | – |
| 5900 nM | 0.18 nM | – | CCN(CCCc1ccc(F)cc1)CC1OC(=O)N(C)CC1(C)NC(=O)Nc1cccc(-c2nnnn2C)c1 (mixture of isomers; 23a) | IC50 (Eosinophil; eosinophil): 4.4 nM |
| 17000 nM | 0.15 nM | – | CN1CC(C)(NC(=O)Nc2cccc(-c3nnnn3C)c2)C(CN2CCC[C@@H](Cc3ccc(F)cc3)C2)OC1=O.Cl (mixture of isomers; 19b) | Stability (Liver microsomes): Unstable; IC50 (Eosinophil; eosinophil): 0.13 nM; IC50 [1]: 15700 nM |
| 33000 nM | 0.12 nM | – | CN1CC(C)(NC(=O)Nc2cccc(-c3nnnn3C)c2)C(CN2CCC[C@@H](Cc3ccc(F)cc3)C2)OC1=O (mixture of isomers; 19a) | IC50 (Eosinophil; eosinophil): 2.4 nM |
